Results taken from ChEMBL document CHEMBL1201862, “PubChem BioAssay data set” (2004).
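48-hour exposure; five concentrations; linearly interpolated endpoints. GI50 is the concentration that inhibits growth by half.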 Activity calls are given as the source filed them. No stated cut-off is given here; in the data, active = GI50 up to about 1.1 µM and inactive = higher.

Legend:
Experiment in all cases: NCI anticancer screen, dose series, 48 h
COLO 205 = tested on: COLO 205
HCC 2998 = tested on: HCC 2998
UACC-257 = tested on: UACC-257
SF-295 = tested on: SF-295
MOLT-4 = tested on: MOLT-4
SNB-75 = tested on: SNB-75
M14 = tested on: M14
NCI-H226 = tested on: NCI-H226
SR = tested on: SR
TK-10 = tested on: TK-10
OVCAR-4 = tested on: OVCAR-4
LOX IMVI = tested on: LOX IMVI
SW-620 = tested on: SW-620
SF-539 = tested on: SF-539
RXF 393 = tested on: RXF 393

Measured: GI50

c1ccc(SC23C4C5C6C4C2C6C53)nc1 (centres undefined)
inactive: COLO 205 > 100 µM | HCC 2998 > 100 µM | UACC-257 > 100 µM | SF-295 > 100 µM | MOLT-4 > 100 µM | SNB-75 > 77.4 µM | M14 > 100 µM | NCI-H226 > 100 µM | SR > 19.6 µM | TK-10 > 67.9 µM | OVCAR-4 > 100 µM | LOX IMVI > 100 µM | SW-620 > 100 µM | SF-539 > 75 µM

O=C1Nc2ccccc2C12CCNC2Cc1ccccc1 (centres undefined)
inactive: COLO 205 > 100 µM | HCC 2998 > 100 µM | UACC-257 > 100 µM | SF-295 > 100 µM | MOLT-4 > 100 µM | SNB-75 > 100 µM | M14 > 100 µM | TK-10 > 100 µM | OVCAR-4 > 100 µM | LOX IMVI > 100 µM | SW-620 > 100 µM | SF-539 > 100 µM

COc1ccc(-c2nc3c(nc2-c2ccc(OC)cc2)C(N)=NS(=O)(=O)N3)cc1
inactive: COLO 205 > 100 µM | HCC 2998 > 100 µM | UACC-257 > 100 µM | SF-295 > 100 µM | MOLT-4 > 100 µM | SNB-75 > 100 µM | NCI-H226 > 100 µM | TK-10 > 100 µM | LOX IMVI > 100 µM | SW-620 > 100 µM | SF-539 > 100 µM | RXF 393 > 100 µM

Clc1cccc(-c2nnc(-c3nn(-c4ccccc4)c4nc5ccccc5nc34)o2)c1
inactive: COLO 205 > 100 µM | HCC 2998 > 100 µM | UACC-257 > 100 µM | SF-295 > 100 µM | MOLT-4 > 100 µM | SNB-75 36.6 µM | M14 > 100 µM | NCI-H226 > 100 µM | TK-10 > 100 µM | OVCAR-4 > 100 µM | LOX IMVI > 100 µM | SW-620 > 100 µM | SF-539 > 100 µM | RXF 393 56.2 µM

C1=CC(N(c2ccccc2)C2C=CCCC2)CCC1 (centres undefined)
inactive: COLO 205 > 100 µM | SF-295 85.7 µM | MOLT-4 > 10 µM | M14 > 100 µM | TK-10 > 100 µM | LOX IMVI > 100 µM | SW-620 > 100 µM | SF-539 > 100 µM | RXF 393 48.6 µM

O=C(/C=C/c1ccc(OCCCCCCCCCCOc2ccc(/C=C/C(=O)c3ccc(Cl)cc3)cc2)cc1)c1ccc(Cl)cc1
inactive: COLO 205 > 100 µM | HCC 2998 > 100 µM | UACC-257 > 100 µM | SF-295 > 100 µM | MOLT-4 > 100 µM | SNB-75 > 100 µM | NCI-H226 > 100 µM | TK-10 > 100 µM | LOX IMVI > 100 µM | SW-620 > 100 µM | SF-539 > 100 µM | RXF 393 > 100 µM

O=C1c2ccccc2C(=O)c2nc(-c3ccccc3)c(-c3ccccc3)nc21
inactive: COLO 205 17.7 µM | HCC 2998 > 100 µM | UACC-257 1.89 µM | SF-295 11 µM | MOLT-4 > 100 µM | SNB-75 8.15 µM | M14 5.69 µM | NCI-H226 22.5 µM | TK-10 > 100 µM | OVCAR-4 7.08 µM | LOX IMVI 8.04 µM | SW-620 2.7 µM | SF-539 24.7 µM | RXF 393 > 43.5 µM

O=C(CC(=O)c1cccc2ccccc12)C(=O)NC1C2CC3CC(C2)CC1C3 (centres undefined)
inactive: COLO 205 > 100 µM | HCC 2998 > 100 µM | UACC-257 > 100 µM | SF-295 > 100 µM | MOLT-4 > 100 µM | M14 > 100 µM | NCI-H226 > 100 µM | TK-10 > 100 µM | OVCAR-4 > 100 µM | LOX IMVI > 100 µM | SW-620 > 100 µM | SF-539 > 100 µM
